Measurements as given in DBAASP.
≈ marks a conversion by molar mass, not a printed value. Where “and” joins values, the source holds several entries; their conditions need not be identical. Equal values may be shown once. Each block holds one compound with its values, some of them ahead of it.

How the values were obtained:
Test in all cases: ≥ marks a high value that may be exact or a test limit, other limits are often not marked, values filed in µg/mL are converted to µM
[1] = test system: Bacillus subtilis VKM B-501
Escherichia coli C600 = test system: Escherichia coli C600
[2] = test system: Staphylococcus aureus 209P
[3] = test system: Bacillus cereus ATCC 11778
[4] = test system: Bacillus thuringiensis ATCC 10792
[5] = test system: Enterococcus faecium CCT 5079
[6] = test system: Enterococcus hirae ATCC 10541
[7] = test system: Escherichia coli ATCC 11775
[8] = test system: Escherichia coli ATCC 25922
[9] = test system: Escherichia coli CCT 1457
[10] = test system: Micrococcus luteus ATCC 4698
[11] = test system: Pseudomonas aeruginosa ATCC 13388
[12] = test system: Pseudomonas aeruginosa ATCC 15422
[13] = test system: Salmonella enterica subsp. enterica serovar Choleraesuis ATCC 10708
[14] = test system: Salmonella enterica subsp. enterica serovar Typhimurium ATCC 14028
[15] = test system: Staphylococcus aureus ATCC 25923
[16] = test system: Staphylococcus aureus CCT 2580
[17] = test system: Staphylococcus aureus CCT 6538
[18] = test system: Staphylococcus epidermidis ATCC 12228
[19] = test system: Streptococcus mutans AU159
[20] = test system: Streptococcus pneumoniae ATCC 11733
[21] = test system: Candida albicans ATCC 90028
[22] = test system: Batrachochytrium dendrobatidis
[23] = test system: Candida albicans CGMCC 2.2086
Candida albicans = test system: Candida albicans
[24] = test system: Candida krusei CGMCC 2.1857
[25] = test system: Candida parapsilosis CGMCC 2.3989
[26] = test system: Candida tropicalis CGMCC 2.1975
Escherichia coli 1005 = test system: Escherichia coli 1005
[27] = test system: Salmonella enterica subsp. enterica serovar Pullorum ATCC 7913
[28] = test system: Staphylococcus aureus ATCC 29213
[29] = test system: Staphylococcus aureus ATCC 43300

- MIC [1]: 1.5 µM (≈ 4.38 µg/mL)
- MIC (Escherichia coli C600): 6 µM (≈ 17.5 µg/mL)
- MIC [2]: ≥ 36 µM
SMILES: CC[C@H](C)[C@H](NC(=O)[C@H](C)NC(=O)[C@H](CCCCN)NC(=O)[C@H](CCCN=C(N)N)NC(=O)CNC(=O)[C@H](Cc1ccccc1)NC(=O)[C@H](CCCCN)NC(=O)[C@H](CCCCN)NC(=O)[C@H](CCC(N)=O)NC(=O)[C@H](CC(C)C)NC(=O)[C@H](CCCCN)NC(=O)CNC(=O)[C@H](Cc1ccccc1)NC(=O)[C@H](CC(C)C)NC(=O)CN)C(=O)N[C@@H](CO)C(=O)N[C@@H](Cc1ccc(O)cc1)C(=O)N[C@@H](C)C(=O)N[C@H](C(=O)N[C@@H](CCCCN)C(=O)N[C@@H](CCCCN)C(=O)N[C@@H](C)C(=O)N[C@@H](CCCN=C(N)N)C(=O)NCC(=O)N[C@@H](CCCCN)C(=O)N[C@@H](Cc1cnc[nH]1)C(=O)O)C(C)C [GLFGKLQKKFGRKAISYAVKKARGKH]

- MIC [3]: 18.7 µM (≈ 31 µg/mL)
- MIC [4]: 18.7 µM (≈ 31 µg/mL)
- MIC [5]: 1.21 µM (≈ 2 µg/mL)
- MIC [6]: 18.7 µM (≈ 31 µg/mL)
- MIC [7]: 2.41 µM (≈ 4 µg/mL)
- MIC [8]: 9.66 µM (≈ 16 µg/mL)
- MIC [9]: 2.41 µM (≈ 4 µg/mL)
- MIC [10]: 0.604 µM (≈ 0.999 µg/mL)
- MIC [11]: 2.41 µM (≈ 4 µg/mL)
- MIC [12]: 4.83 µM (≈ 8 µg/mL)
- MIC [14]: 2.41 µM (≈ 4 µg/mL)
- MIC [15]: 1.21 µM (≈ 2 µg/mL)
- MIC [16]: 1.21 µM (≈ 2 µg/mL)
- MIC [17]: 2.41 µM (≈ 4 µg/mL)
- MIC [18]: 0.604 µM (≈ 0.999 µg/mL)
- MIC [19]: 2.41 µM (≈ 4 µg/mL)
- MIC [20]: 0.604 µM (≈ 0.999 µg/mL)
SMILES: CC[C@H](C)[C@H](N)C(=O)N[C@@H](CC(N)=O)C(=O)N[C@@H](Cc1c[nH]c2ccccc12)C(=O)N[C@@H](CCCCN)C(=O)N[C@@H](CCCCN)C(=O)N[C@H](C(=O)N[C@@H](CCCCN)C(=O)N[C@@H](CCCCN)C(=O)N[C@@H](CCCCN)C(=O)N[C@H](C(=O)N[C@@H](C)C(=O)NCC(=O)N[C@@H](CCSC)C(=O)N[C@@H](CC(C)C)C(N)=O)C(C)C)[C@@H](C)CC [INWKKIKKKVAGML]
- MIC [13]: 18.7 µM (≈ 31 µg/mL)

- MIC [3]: ≥ 152 µM
- MIC [4]: ≥ 76.1 µM
- MIC [21]: ≥ 38.1 µM
- MIC [5]: 4.87 µM (≈ 8 µg/mL)
- MIC [6]: 18.9 µM (≈ 31 µg/mL)
- MIC [7]: 18.9 µM (≈ 31 µg/mL)
- MIC [8]: 18.9 µM (≈ 31 µg/mL)
- MIC [9]: 4.87 µM (≈ 8 µg/mL)
- MIC [10]: 2.44 µM (≈ 4 µg/mL)
- MIC [11]: ≥ 152 µM
- MIC [12]: ≥ 76.1 µM
- MIC [14]: 18.9 µM (≈ 31 µg/mL)
- MIC [15]: 1.22 µM (≈ 2 µg/mL)
- MIC [16]: 4.87 µM (≈ 8 µg/mL)
- MIC [17]: 18.9 µM (≈ 31 µg/mL)
- MIC [18]: 2.44 µM (≈ 4 µg/mL)
- MIC [19]: 2.44 µM (≈ 4 µg/mL)
- MIC [20]: 1.22 µM (≈ 2 µg/mL)
SMILES: CC[C@H](C)[C@H](N)C(=O)N[C@@H](CC(N)=O)C(=O)N[C@@H](Cc1c[nH]c2ccccc12)C(=O)N[C@@H](CC(C)C)C(=O)N[C@@H](CCCCN)C(=O)N[C@H](C(=O)N[C@@H](CCCCN)C(=O)N[C@@H](CCCCN)C(=O)N[C@@H](CCCCN)C(=O)N[C@H](C(=O)N[C@@H](C)C(=O)NCC(=O)N[C@@H](CCSC)C(=O)N[C@@H](CC(C)C)C(N)=O)C(C)C)[C@@H](C)CC [INWLKIKKKVAGML]
- MIC [13]: ≥ 304 µM

- MIC [22]: ≥ 200 µM
SMILES: CC(C)C[C@H](NC(=O)CN)C(=O)N[C@@H](CC(C)C)C(=O)N[C@@H](C)C(=O)N[C@@H](CO)C(=O)N[C@@H](CC(C)C)C(=O)NCC(=O)N[C@@H](CCCCN)C(=O)N[C@H](C(=O)N[C@@H](Cc1ccccc1)C(=O)NCC(=O)NCC(=O)N[C@@H](Cc1ccc(O)cc1)C(=O)N[C@@H](CC(C)C)C(=O)N[C@@H](C)C(=O)N[C@@H](CCC(=O)O)C(=O)N[C@@H](CCCCN)C(=O)N[C@@H](CC(C)C)C(=O)N[C@@H](CCCCN)C(=O)N1CCC[C@H]1C(=O)N[C@@H](CCCCN)C(=O)O)C(C)C [GLLASLGKVFGGYLAEKLKPK]

- MIC [22]: ≥ 100 µM
SMILES: CC[C@H](C)[C@H](NC(=O)[C@H](CC(C)C)NC(=O)[C@@H]1CCCN1C(=O)[C@H](CC(C)C)NC(=O)[C@H](CCCCN)NC(=O)[C@H](CCCCN)NC(=O)[C@H](Cc1ccccc1)NC(=O)[C@H](CC(C)C)NC(=O)[C@H](CCCCN)NC(=O)[C@H](Cc1c[nH]c2ccccc12)NC(=O)[C@@H](N)CCCCN)C(=O)NCC(=O)N[C@@H](CCCN=C(N)N)C(=O)N[C@H](C(=O)N[C@@H](CC(C)C)C(N)=O)C(C)C [KWKLFKKLPLIGRVL]

- MIC [1]: 0.7 µM (≈ 2.42 µg/mL)
- MIC (Escherichia coli C600): 1.5 µM (≈ 5.18 µg/mL)
- MIC [2]: 6 µM (≈ 20.7 µg/mL)
SMILES: CC(C)C[C@H](NC(=O)[C@H](CCCN=C(N)N)NC(=O)[C@H](CCCCN)NC(=O)[C@H](CCCCN)NC(=O)[C@H](CC(C)C)NC(=O)[C@H](CC(N)=O)NC(=O)[C@H](C)NC(=O)[C@H](Cc1ccccc1)NC(=O)[C@H](CCCN=C(N)N)NC(=O)[C@H](CCCN=C(N)N)NC(=O)[C@H](CCCCN)NC(=O)[C@H](Cc1ccccc1)NC(=O)[C@H](CO)NC(=O)[C@H](C)NC(=O)CNC(=O)[C@H](Cc1ccccc1)NC(=O)[C@H](CCCCN)NC(=O)[C@H](CCCCN)NC(=O)[C@H](Cc1ccccc1)NC(=O)[C@H](Cc1ccc(O)cc1)NC(=O)[C@H](CCC(=O)O)NC(=O)[C@H](CCCCN)NC(=O)[C@H](CCCN=C(N)N)NC(=O)[C@H](CCCCN)NC(=O)CNC(=O)[C@H](Cc1ccccc1)NC(=O)[C@H](Cc1ccccc1)NC(=O)CN)C(N)=O [GFFGKRKEYFKKFGASFKRRFANLKKRL]

- MIC [23]: 4 µM and 8 µM
- MIC (Candida albicans): 4 µM (≈ 7.54 µg/mL)
- MIC [24]: 2 µM (≈ 3.77 µg/mL)
- MIC [25]: 8 µM (≈ 15.1 µg/mL)
- MIC [26]: 2 µM (≈ 3.77 µg/mL)
- MIC (Escherichia coli 1005): 4 µM (≈ 7.54 µg/mL)
- MIC [27]: 2 µM (≈ 3.77 µg/mL)
- MIC [14]: 4 µM (≈ 7.54 µg/mL)
- MIC [15]: 4 µM (≈ 7.54 µg/mL)
- MIC [28]: 2 µM (≈ 3.77 µg/mL)
- MIC [29]: 4 µM (≈ 7.54 µg/mL)
- MIC [18]: 4 µM (≈ 7.54 µg/mL)
SMILES: NC(=O)[C@H](CCCN=C(N)N)NC(=O)[C@H](CCCN=C(N)N)NC(=O)[C@H](Cc1c[nH]c2ccccc12)NC(=O)[C@H](CCCN=C(N)N)NC(=O)[C@H](Cc1c[nH]c2ccccc12)NC(=O)[C@H](Cc1c[nH]c2ccccc12)NC(=O)[C@H](Cc1c[nH]c2ccccc12)NC(=O)[C@H](CCCN=C(N)N)NC(=O)[C@H](Cc1c[nH]c2ccccc12)NC(=O)[C@H](CCCN=C(N)N)NC(=O)[C@@H](N)CCCN=C(N)N [RRWRWWWRWRR]

- MIC (Candida albicans): 5.66 µM (≈ 7.79 µg/mL)
- MIC [24]: 4 µM (≈ 5.51 µg/mL)
- MIC [25]: 16 µM (≈ 22 µg/mL)
- MIC [26]: 2 µM (≈ 2.76 µg/mL)
- MIC (Escherichia coli 1005): 4 µM (≈ 5.51 µg/mL)
- MIC [8]: 4 µM and > 2 µM
- MIC [27]: 2 µM (≈ 2.76 µg/mL)
- MIC [14]: 4 µM (≈ 5.51 µg/mL)
- MIC [15]: 4 µM (≈ 5.51 µg/mL)
- MIC [28]: 4 µM (≈ 5.51 µg/mL)
- MIC [29]: 4 µM (≈ 5.51 µg/mL)
- MIC [18]: 4 µM (≈ 5.51 µg/mL)
SMILES: NC(=O)[C@H](CCCN=C(N)N)NC(=O)[C@H](Cc1ccccc1)NC(=O)[C@H](CCCN=C(N)N)NC(=O)[C@H](Cc1ccccc1)NC(=O)[C@H](Cc1ccccc1)NC(=O)[C@H](Cc1ccccc1)NC(=O)[C@H](CCCN=C(N)N)NC(=O)[C@H](Cc1ccccc1)NC(=O)[C@@H](N)CCCN=C(N)N [RFRFFFRFR]
